Columns and labels:
Assay in all cases: cells
RKO = format: functional, cell-based, Homo sapiens; settings: Homo sapiens, RKO;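 further: growth inhibition of human RKO cells, read out with a cell viability assay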
Description: SANGER: Inhibition of human RKO cell growth in a cell viability assay.

A4-Fuk = format: functional, cell-based, Homo sapiens; settings: Homo sapiens, A4-Fuk;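 further: growth inhibition of A4-Fuk cells, read out by a cell viability assay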
Description: SANGER: Inhibition of human A4-Fuk cell growth in a cell viability assay.

A388 = format: functional, cell-based, Homo sapiens; settings: Homo sapiens, A388;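 further: growth inhibition of human A388 cells, read out with a cell viability assay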
Description: SANGER: Inhibition of human A388 cell growth in a cell viability assay.

ML-2 = format: functional, cell-based, Homo sapiens; settings: Homo sapiens, ML-2;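 further: growth inhibition of ML-2 cells, measured with a cell viability readout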
Description: SANGER: Inhibition of human ML-2 cell growth in a cell viability assay.

NCI-H1650 = format: functional, cell-based, Homo sapiens; settings: Homo sapiens, NCI-H1650;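 further: growth inhibition of human NCI-H1650 cells measured by a cell viability assay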
Description: SANGER: Inhibition of human NCI-H1650 cell growth in a cell viability assay.

NCI-H1092 = format: functional, cell-based, Homo sapiens; settings: Homo sapiens, NCI-H1092;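 further: cell growth inhibition measured with a cell viability assay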
Description: SANGER: Inhibition of human NCI-H1092 cell growth in a cell viability assay.

SF-126 = format: functional, cell-based, Homo sapiens; settings: Homo sapiens, SF-126;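 further: growth inhibition of human SF126 cells, read out with a cell viability assay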
Description: SANGER: Inhibition of human SF126 cell growth in a cell viability assay.

EW-16 = format: functional, cell-based, Homo sapiens; settings: Homo sapiens, EW-16;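 further: growth inhibition of human EW-16 cells, read out as cell viability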
Description: SANGER: Inhibition of human EW-16 cell growth in a cell viability assay.

DOHH-2 = format: functional, cell-based, Homo sapiens; settings: Homo sapiens, DOHH-2;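 further: growth inhibition of human DOHH-2 cells, read out with a cell viability assay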
Description: SANGER: Inhibition of human DOHH-2 cell growth in a cell viability assay.

Becker = format: functional, cell-based, Homo sapiens; settings: Homo sapiens, Becker;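 further: growth inhibition of Becker cells, read out with a cell viability assay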
Description: SANGER: Inhibition of human Becker cell growth in a cell viability assay.

TGW = format: functional, cell-based, Homo sapiens; settings: Homo sapiens, TGW;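 further: growth inhibition of human TGW cells, read out with a cell viability assay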
Description: SANGER: Inhibition of human TGW cell growth in a cell viability assay.

SK-N-DZ = format: functional, cell-based, Homo sapiens; settings: Homo sapiens, SK-N-DZ;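 further: growth inhibition of the cancer cell line, read out through a viability assay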
Description: SANGER: Inhibition of human SK-N-DZ cell growth in a cell viability assay.

NCI-H510A = format: functional, cell-based, Homo sapiens; settings: Homo sapiens, NCI-H510A;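 further: growth inhibition of NCI-H510A cells, read out with a cell viability assay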
Description: SANGER: Inhibition of human NCI-H510A cell growth in a cell viability assay.

SW 962 = format: functional, cell-based, Homo sapiens; settings: Homo sapiens, SW 962;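 further: growth inhibition of human SW962 cells, read out by a cell viability assay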
Description: SANGER: Inhibition of human SW962 cell growth in a cell viability assay.

K5 = format: functional, cell-based, Homo sapiens; settings: Homo sapiens, K5
Description: SANGER: Inhibition of human K5 cell growth in a cell viability assay.

IST-SL1 = format: functional, cell-based, Homo sapiens; settings: Homo sapiens, IST-SL1;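 further: growth inhibition of human IST-SL1 cells, read out with a cell viability assay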
Description: SANGER: Inhibition of human IST-SL1 cell growth in a cell viability assay.

ES8 = format: functional, cell-based, Homo sapiens; settings: Homo sapiens, ES8;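 further: growth inhibition of human ES8 cells, read out with a cell viability assay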
Description: SANGER: Inhibition of human ES8 cell growth in a cell viability assay.

EM-2 = format: functional, cell-based, Homo sapiens; settings: Homo sapiens, EM-2;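 further: growth inhibition of EM-2 cells, read out with a cell viability assay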
Description: SANGER: Inhibition of human EM-2 cell growth in a cell viability assay.

HCE-4 = format: functional, cell-based, Homo sapiens; settings: Homo sapiens, HCE-4;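 further: cell viability assay measuring inhibition of growth in the human HCE-4 cell line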
Description: SANGER: Inhibition of human HCE-4 cell growth in a cell viability assay.

COLO-829 = format: functional, cell-based, Homo sapiens; settings: Homo sapiens, COLO-829
Description: SANGER: Inhibition of human COLO-829 cell growth in a cell viability assay.

D-502MG = format: functional, cell-based, Homo sapiens; settings: Homo sapiens, D-502MG
Description: SANGER: Inhibition of human D-502MG cell growth in a cell viability assay.

KGN = format: functional, cell-based, Homo sapiens; settings: Homo sapiens, KGN;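 further: growth inhibition of KGN cells, read out with a cell viability assay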
Description: SANGER: Inhibition of human KGN cell growth in a cell viability assay.

NCI-H82 = format: functional, cell-based, Homo sapiens; settings: Homo sapiens, NCI-H82;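 further: growth inhibition of NCI-H82 cells, measured with a cell viability readout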
Description: SANGER: Inhibition of human NCI-H82 cell growth in a cell viability assay.

NCI-H1648 = format: functional, cell-based, Homo sapiens; settings: Homo sapiens, NCI-H1648;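 further: cell viability assay measuring inhibition of NCI-H1648 cell growth, from the Sanger screening data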
Description: SANGER: Inhibition of human NCI-H1648 cell growth in a cell viability assay.

IA-LM = format: functional, cell-based, Homo sapiens; settings: Homo sapiens, IA-LM;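 further: cell viability assay measuring growth inhibition of human IA-LM cells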
Description: SANGER: Inhibition of human IA-LM cell growth in a cell viability assay.

HH = format: functional, cell-based, Homo sapiens; settings: Homo sapiens, HH
Description: SANGER: Inhibition of human HH cell growth in a cell viability assay.

GR-ST = format: functional, cell-based, Homo sapiens; settings: Homo sapiens, GR-ST
Description: SANGER: Inhibition of human GR-ST cell growth in a cell viability assay.

KM-H2 = format: functional, cell-based, Homo sapiens; settings: Homo sapiens, KM-H2;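 further: growth inhibition of KM-H2 cells, read out by a cell viability assay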
Description: SANGER: Inhibition of human KM-H2 cell growth in a cell viability assay.

LB1047-RCC = format: functional, cell-based, Homo sapiens; settings: Homo sapiens, LB1047-RCC;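 further: inhibition of cell growth, determined with a cell viability assay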
Description: SANGER: Inhibition of human LB1047-RCC cell growth in a cell viability assay.

NCI-H209 = format: functional, cell-based, Homo sapiens; settings: Homo sapiens, NCI-H209;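 further: growth inhibition of human NCI-H209 cells, measured by a cell viability assay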
Description: SANGER: Inhibition of human NCI-H209 cell growth in a cell viability assay.

LB2241-RCC = format: functional, cell-based, Homo sapiens; settings: Homo sapiens, LB2241-RCC;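 further: cell viability assay measuring how strongly the cultured human renal carcinoma line is prevented from growing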
Description: SANGER: Inhibition of human LB2241-RCC cell growth in a cell viability assay.

JVM-3 = format: functional, cell-based, Homo sapiens; settings: Homo sapiens, JVM-3;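 further: growth inhibition of human JVM-3 cells, read out with a cell viability assay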
Description: SANGER: Inhibition of human JVM-3 cell growth in a cell viability assay.

ES7 = format: functional, cell-based, Homo sapiens; settings: Homo sapiens, ES7;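 further: growth inhibition of cultured human ES7 cells, read out as cell viability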
Description: SANGER: Inhibition of human ES7 cell growth in a cell viability assay.

TE-9 = format: functional, cell-based, Homo sapiens; settings: Homo sapiens, TE-9;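 further: cell growth inhibition, measured with a cell viability readout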
Description: SANGER: Inhibition of human TE-9 cell growth in a cell viability assay.

HL-60 = format: functional, cell-based, Homo sapiens; settings: Homo sapiens, HL-60;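 further: growth inhibition of human HL-60 cells, read out with a cell viability assay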
Description: SANGER: Inhibition of human HL-60 cell growth in a cell viability assay.

CP66-MEL = format: functional, cell-based, Homo sapiens; settings: Homo sapiens, CP66-MEL;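 further: growth inhibition of CP66-MEL cells determined in a cell viability assay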
Description: SANGER: Inhibition of human CP66-MEL cell growth in a cell viability assay.

HCC1187 = format: functional, cell-based, Homo sapiens; settings: Homo sapiens, HCC1187;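 further: growth inhibition of HCC1187 cells, read out with a cell viability assay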
Description: SANGER: Inhibition of human HCC1187 cell growth in a cell viability assay.

SHP77 = format: functional, cell-based, Homo sapiens, SHP-77; settings: Homo sapiens, SHP77;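 further: growth inhibition of human SHP-77 cells measured by a cell viability assay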
Description: SANGER: Inhibition of human SHP-77 cell growth in a cell viability assay.

ETK-1 = format: functional, cell-based, Homo sapiens; settings: Homo sapiens, ETK-1;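 further: growth inhibition of human ETK-1 cells, read out with a cell viability assay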
Description: SANGER: Inhibition of human ETK-1 cell growth in a cell viability assay.

ALL-PO = format: functional, cell-based, Homo sapiens; settings: Homo sapiens, ALL-PO;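 further: growth inhibition of ALL-PO cells, read out by a cell viability assay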
Description: SANGER: Inhibition of human ALL-PO cell growth in a cell viability assay.

NMC-G1 = format: functional, cell-based, Homo sapiens; settings: Homo sapiens, NMC-G1;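 further: growth inhibition of the NMC-G1 cell line, measured with a cell viability read-out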
Description: SANGER: Inhibition of human NMC-G1 cell growth in a cell viability assay.

HT-144 = format: functional, cell-based, Homo sapiens; settings: Homo sapiens, HT-144
Description: SANGER: Inhibition of human HT-144 cell growth in a cell viability assay.

NB6 = format: functional, cell-based, Homo sapiens; settings: Homo sapiens, NB6;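 further: growth inhibition of NB6 cells, read out by a cell viability assay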
Description: SANGER: Inhibition of human NB6 cell growth in a cell viability assay.

A498 = format: functional, cell-based, Homo sapiens; settings: Homo sapiens, A498;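 further: growth inhibition of human A498 cells, read out with a cell viability assay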
Description: SANGER: Inhibition of human A498 cell growth in a cell viability assay.

GOTO = format: functional, cell-based, Homo sapiens; settings: Homo sapiens, GOTO;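 further: growth inhibition of GOTO cells, read out by a cell viability assay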
Description: SANGER: Inhibition of human GOTO cell growth in a cell viability assay.

AM-38 = format: functional, cell-based, Homo sapiens; settings: Homo sapiens, AM-38;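 further: growth inhibition of AM-38 cells of human origin, read out by a cell viability assay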
Description: SANGER: Inhibition of human AM-38 cell growth in a cell viability assay.

EW-3 = format: functional, cell-based, Homo sapiens; settings: Homo sapiens, EW-3;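 further: cell viability assay read-out, IC50 reflects inhibition of growth of the EW-3 cells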
Description: SANGER: Inhibition of human EW-3 cell growth in a cell viability assay.

ES1 = format: functional, cell-based, Homo sapiens; settings: Homo sapiens, ES1;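 further: growth inhibition of ES1 cells, read out with a cell viability assay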
Description: SANGER: Inhibition of human ES1 cell growth in a cell viability assay.

EW-13 = format: functional, cell-based, Homo sapiens; settings: Homo sapiens, EW-13;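 further: growth inhibition of EW-13 cells, read out with a cell viability assay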
Description: SANGER: Inhibition of human EW-13 cell growth in a cell viability assay.

GI-ME-N = format: functional, cell-based, Homo sapiens; settings: Homo sapiens, GI-ME-N;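 further: growth inhibition of human GI-ME-N cells, read out with a cell viability assay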
Description: SANGER: Inhibition of human GI-ME-N cell growth in a cell viability assay.

Structure (SMILES): C=C(c1ccc(C(=O)O)cc1)c1cc2c(cc1C)C(C)(C)CCC2(C)C [BEXAROTENE]
- IC50 (RKO): > 8 µM
- IC50 (A4-Fuk): > 8 µM
- IC50 (A388): > 8 µM
- IC50 (ML-2): > 8 µM
- IC50 (NCI-H1650): > 8 µM
- IC50 (NCI-H1092): > 8 µM
- IC50 (SF-126): > 8 µM
- IC50 (EW-16): > 8 µM
- IC50 (DOHH-2): > 8 µM
- IC50 (Becker): > 8 µM
- IC50 (TGW): > 8 µM
- IC50 (SK-N-DZ): > 8 µM
- IC50 (NCI-H510A): > 8 µM
- IC50 (SW 962): > 8 µM
- IC50 (K5): > 8 µM
- IC50 (IST-SL1): > 8 µM
- IC50 (ES8): > 8 µM
- IC50 (EM-2): > 8 µM
- IC50 (HCE-4): > 8 µM
- IC50 (COLO-829): > 8 µM
- IC50 (D-502MG): > 8 µM
- IC50 (KGN): > 8 µM
- IC50 (NCI-H82): > 8 µM
- IC50 (NCI-H1648): > 8 µM
- IC50 (IA-LM): 7.36 µM
- IC50 (HH): > 8 µM
- IC50 (GR-ST): > 8 µM
- IC50 (KM-H2): > 8 µM
- IC50 (LB1047-RCC): > 8 µM
- IC50 (NCI-H209): > 8 µM
- IC50 (LB2241-RCC): > 8 µM
- IC50 (JVM-3): > 8 µM
- IC50 (ES7): > 8 µM
- IC50 (TE-9): > 8 µM
- IC50 (HL-60): > 8 µM
- IC50 (CP66-MEL): > 8 µM
- IC50 (HCC1187): > 8 µM
- IC50 (SHP77): > 8 µM
- IC50 (ETK-1): > 8 µM
- IC50 (ALL-PO): 5.86 µM
- IC50 (NMC-G1): > 8 µM
- IC50 (HT-144): > 8 µM
- IC50 (NB6): > 8 µM
- IC50 (A498): > 8 µM
- IC50 (GOTO): > 8 µM
- IC50 (AM-38): > 8 µM
- IC50 (EW-3): > 8 µM
- IC50 (ES1): > 8 µM
- IC50 (EW-13): 0.485 µM
- IC50 (GI-ME-N): > 8 µM

From ChEMBL document CHEMBL1201861, “Genomics of Drug Sensitity in Cancer screening data, Wellcome Trust Sanger Institute”
